Blank lines part the entries; values can stand above or below the molecule they belong to.
Key:
[1] = target: T1, human σ1 receptor (Homo sapiens, UniProt Q99720); assay: Human σ1 receptor radioligand assay ([3H](+)-pentazocine, transfected HEK-293 membranes); details: class scale, read-out: Binding σ-1 Ki
T1 construct: expressed in transfected cells; host or cells: HEK-293
How it was run: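 Membranes (7 μg) from transfected HEK-293 cells were incubated with 5 nM [3H](+)-pentazocine in 50 mM Tris-HCl, pH 8, for 120 minutes at 37° C, with 10 μM haloperidol defining non-specific binding. Bound radioactivity was filtered and counted by scintillation. Results are % inhibition at 1 or 10 μM or Ki from five concentrations.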

[2] = target: T2, human σ2/TMEM97 receptor (Homo sapiens, UniProt Q5BJF2); assay: Binding assay to human σ2/TMEM97 receptor ([3H]-DTG, transfected HEK-293 membranes); details: class scale, read-out: Binding σ-2 Ki
T2 construct: expressed in transfected cells; host or cells: HEK-293
How it was run: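 Membranes (15 μg) from transfected HEK-293 incubated 120 min at 25 °C with 10 nM [3H]-DTG in 50 mM Tris-HCl pH 8.0; nonspecific binding with 10 μM haloperidol. Filtration and scintillation counting; % inhibition at 1 or 10 μM, or Ki from five concentrations.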

T2 sequence (Q5BJF2 whole entry): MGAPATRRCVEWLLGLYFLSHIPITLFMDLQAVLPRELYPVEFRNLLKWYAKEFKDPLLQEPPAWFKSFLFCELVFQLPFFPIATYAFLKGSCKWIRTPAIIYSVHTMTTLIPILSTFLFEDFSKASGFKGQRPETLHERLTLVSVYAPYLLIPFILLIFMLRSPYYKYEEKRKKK
T1 sequence (Q99720 whole entry): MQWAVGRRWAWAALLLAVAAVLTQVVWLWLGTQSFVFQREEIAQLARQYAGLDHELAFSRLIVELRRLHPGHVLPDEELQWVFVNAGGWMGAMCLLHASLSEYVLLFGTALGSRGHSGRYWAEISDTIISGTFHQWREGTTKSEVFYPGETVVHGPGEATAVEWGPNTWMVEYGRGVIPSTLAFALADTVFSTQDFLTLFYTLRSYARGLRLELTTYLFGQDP

Ki [1]: < 100 nM | Ki [2]: < 100 nM
SMILES: Cc1cc(-c2nn(C)c(Cl)c2C(=O)N2CCCC3(CCN(CCC(C)(C)C)CC3)C2)no1 [Example 92, (5-Chloro-1-methyl-3-(5-methylisoxazol-3-yl)-1H-pyrazol-4-yl)(9-(3,3-dimethylbutyl)-2,9-diazaspiro[5.5]undecan-2-yl)methanone]

Ki [1]: > 1000 nM | Ki [2]: > 1000 nM
SMILES: Cc1cc(-c2nn(C)c(Cl)c2C(=O)N2CCCC(CNCC(C)C)C2)no1 (centres unmarked) [Example 95, (5-Chloro-1-methyl-3-(5-methylisoxazol-3-yl)-1H-pyrazol-4-yl)(3-((isobutylamino)methyl)piperidin-1-yl)methanone]

Ki [1]: 500 to 1000 nM | Ki [2]: < 100 nM
SMILES: Cc1cc(-c2nn(C)c(F)c2C(=O)N2CCC3(CCN(CCC(C)(C)C)CC3)CC2)no1 [Example 98, (9-(3,3-Dimethylbutyl)-3,9-diazaspiro[5.5]undecan-3-yl)(5-fluoro-1-methyl-3-(5-methylisoxazol-3-yl)-1H-pyrazol-4-yl)methanone]

Ki [1]: 500 to 1000 nM | Ki [2]: < 100 nM
SMILES: CCn1nc(-c2cc(C)on2)c(C(=O)N2CCC3(CCN(CCC(C)(C)C)CC3)CC2)c1Cl [Example 99, (5-Chloro-1-ethyl-3-(5-methylisoxazol-3-yl)-1H-pyrazol-4-yl)(9-(3,3-dimethylbutyl)-3,9-diazaspiro[5.5]undecan-3-yl)methanone]

Ki [1]: 100 to 500 nM | Ki [2]: < 100 nM
SMILES: COc1cccc(-c2nn(C)c(Cl)c2C(=O)N2CCC3(CCN(CCC(C)(C)C)CC3)CC2)n1 [Example 102, (5-Chloro-3-(6-methoxypyridin-2-yl)-1-methyl-1H-pyrazol-4-yl)(9-(3,3-dimethylbutyl)-3,9-diazaspiro[5.5]undecan-3-yl)methanone]

Ki [1]: 100 to 500 nM | Ki [2]: > 1000 nM
SMILES: Cc1cc(-c2nn(C)c(Cl)c2C(=O)N2CCC[C@@H](NCCC(C)C)C2)no1 [Example 108, (R)-(5-Chloro-1-methyl-3-(5-methylisoxazol-3-yl)-1H-pyrazol-4-yl)(3-(isopentylamino)piperidin-1-yl)methanone]

Ki [1]: > 1000 nM | Ki [2]: > 1000 nM
SMILES: Cc1cc(-c2nn(C)c(Cl)c2C(=O)N2CCC[C@H](NCCC(C)C)C2)no1 [Example 109, (S)-(5-Chloro-1-methyl-3-(5-methylisoxazol-3-yl)-1H-pyrazol-4-yl)(3-(isopentylamino)piperidin-1-yl)methanone]

Ki [1]: 100 to 500 nM | Ki [2]: 500 to 1000 nM
SMILES: Cc1cc(-c2nn(C)c(Cl)c2C(=O)N2CCCCC(N(C)CCC(C)C)C2)no1 (centres unmarked) [Example 111, (5-Chloro-1-methyl-3-(5-methylisoxazol-3-yl)-1H-pyrazol-4-yl)(3-(isopentyl(methyl)amino)azepan-1-yl)methanone]

Ki [1]: > 1000 nM | Ki [2]: 100 to 500 nM
SMILES: Cc1cc(-c2nn(C)c(Cl)c2C(=O)N2CCC3(CCN(CC(=O)N4CCC(F)(F)CC4)CC3)CC2)no1 [Example 113, 2-(9-(5-Chloro-1-methyl-3-(5-methylisoxazol-3-yl)-1H-pyrazole-4-carbonyl)-3,9-diazaspiro[5.5]undecan-3-yl)-1-(4,4-difluoropiperidin-1-yl)ethanone]

Second part, the molecule before the results:

SMILES: Cc1cc(-c2nn(C)c(Cl)c2C(=O)N2CCC3(CCN(CCC(C)(C)C)CC3)CC2)no1 [Example 88, (5-Chloro-1-methyl-3-(5-methylisoxazol-3-yl)-1H-pyrazol-4-yl)(9-(3,3-dimethylbutyl)-3,9-diazaspiro[5.5]undecan-3-yl)methanone]
Ki [1]: 500 to 1000 nM | Ki [2]: < 100 nM

SMILES: Cc1cc(-c2nn(C)c(Cl)c2C(=O)N2CCC3(CCN(CC(C)C)CC3)CC2)no1 [Example 89, (5-Chloro-1-methyl-3-(5-methylisoxazol-3-yl)-1H-pyrazol-4-yl)(9-isobutyl-3,9-diazaspiro[5.5]undecan-3-yl)methanone]
Ki [1]: > 1000 nM | Ki [2]: > 1000 nM

SMILES: Cc1cc(-c2nn(C)c(Cl)c2C(=O)N2CCC3(CCN(CCC(C)C)CC3)CC2)no1 [Example 90, (5-Chloro-1-methyl-3-(5-methylisoxazol-3-yl)-1H-pyrazol-4-yl)(9-isopentyl-3,9-diazaspiro[5.5]undecan-3-yl)methanone]
Ki [1]: 500 to 1000 nM | Ki [2]: 100 to 500 nM

SMILES: Cc1cc(-c2nn(C)c(Cl)c2C(=O)N2CCC3(CCCN(CCC(C)(C)C)C3)CC2)no1 [Example 91, (5-Chloro-1-methyl-3-(5-methylisoxazol-3-yl)-1H-pyrazol-4-yl)(2-(3,3-dimethylbutyl)-2,9-diazaspiro[5.5]undecan-9-yl)methanone]
Ki [1]: 500 to 1000 nM | Ki [2]: < 100 nM

SMILES: Cc1cc(-c2nn(C)c(Cl)c2C(=O)N2CCC3(CCC(NCCC(C)C)CC3)CC2)no1 [Example 93, (5-Chloro-1-methyl-3-(5-methylisoxazol-3-yl)-1H-pyrazol-4-yl)(9-(isopentylamino)-3-azaspiro[5.5]undecan-3-yl)methanone]
Ki [1]: > 1000 nM | Ki [2]: 100 to 500 nM

SMILES: Cc1cc(-c2nn(C)c(Cl)c2C(=O)N2CCC3(CCN(CCC(C)(C)C)CC3)C2)no1 [Example 94, (5-Chloro-1-methyl-3-(5-methylisoxazol-3-yl)-1H-pyrazol-4-yl)(8-(3,3-dimethylbutyl)-2,8-diazaspiro[4.5]decan-2-yl)methanone]
Ki [1]: > 1000 nM | Ki [2]: 100 to 500 nM

SMILES: Cc1cc(-c2nn(C)c(Cl)c2C(=O)N2CCC3(CCC(NCCC(C)(C)C)CC3)CC2)no1 [Example 96, (5-Chloro-1-methyl-3-(5-methylisoxazol-3-yl)-1H-pyrazol-4-yl)(9-((3,3-dimethylbutyl)amino)-3-azaspiro[5.5]undecan-3-yl)methanone]
Ki [1]: > 1000 nM | Ki [2]: 100 to 500 nM

SMILES: CCc1cc(-c2nn(C)c(Cl)c2C(=O)N2CCC3(CCN(CCC(C)(C)C)CC3)CC2)no1 [Example 97, (5-Chloro-3-(5-ethylisoxazol-3-yl)-1-methyl-1H-pyrazol-4-yl)(9-(3,3-dimethylbutyl)-3,9-diazaspiro[5.5]undecan-3-yl)methanone]
Ki [1]: 100 to 500 nM | Ki [2]: < 100 nM

SMILES: Cc1conc1-c1nn(C)c(Cl)c1C(=O)N1CCC2(CCN(CCC(C)(C)C)CC2)CC1 [Example 100, (5-Chloro-1-methyl-3-(4-methylisoxazol-3-yl)-1H-pyrazol-4-yl)(9-(3,3-dimethylbutyl)-3,9-diazaspiro[5.5]undecan-3-yl)methanone]
Ki [1]: 500 to 1000 nM | Ki [2]: < 100 nM

SMILES: Cc1cc(-c2nn(-c3ccccc3)c(Cl)c2C(=O)N2CCC3(CCN(CCC(C)(C)C)CC3)CC2)no1 [Example 101, (5-Chloro-3-(5-methylisoxazol-3-yl)-1-phenyl-1H-pyrazol-4-yl)(9-(3,3-dimethylbutyl)-3,9-diazaspiro[5.5]undecan-3-yl)methanone]
Ki [1]: < 100 nM | Ki [2]: < 100 nM

SMILES: Cc1conc1-c1nn(C)c(Cl)c1C(=O)N1CCCC2(CCN(CCC(C)(C)C)CC2)C1 [Example 103, (5-Chloro-1-methyl-3-(4-methylisoxazol-3-yl)-1H-pyrazol-4-yl)(9-(3,3-dimethylbutyl)-2,9-diazaspiro[5.5]undecan-2-yl)methanone]
Ki [1]: 500 to 1000 nM | Ki [2]: < 100 nM

SMILES: Cc1cc(-c2nn(C)c(Cl)c2C(=O)N2CC3(CCN(CCC(C)(C)C)CC3)C2)no1 [Example 104, (5-Chloro-1-methyl-3-(5-methylisoxazol-3-yl)-1H-pyrazol-4-yl)(7-(3,3-dimethylbutyl)-2,7-diazaspiro[3.5]nonan-2-yl)methanone]
Ki [1]: 100 to 500 nM | Ki [2]: 100 to 500 nM

SMILES: Cc1cc(-c2nn(C)c(Cl)c2C(=O)N2CCC3(CN(CCC(C)(C)C)C3)C2)no1 [Example 105, (5-Chloro-1-methyl-3-(5-methylisoxazol-3-yl)-1H-pyrazol-4-yl)(2-(3,3-dimethylbutyl)-2,6-diazaspiro[3.4]octan-6-yl)methanone]
Ki [1]: > 1000 nM | Ki [2]: 100 to 500 nM

SMILES: Cc1cc(-c2nn(C)c(Cl)c2C(=O)NC2CC3(CCN(CCC(C)(C)C)CC3)C2)no1 [Example 106, 5-Chloro-N-(7-(3,3-dimethylbutyl)-7-azaspiro[3.5]nonan-2-yl)-1-methyl-3-(5-methylisoxazol-3-yl)-1H-pyrazole-4-carboxamide]
Ki [1]: 100 to 500 nM | Ki [2]: < 100 nM

SMILES: Cc1cc(-c2nn(C)c(Cl)c2C(=O)NC2CCC3(CC2)CCN(CCC(C)(C)C)CC3)no1 [Example 107, 5-Chloro-N-(3-(3,3-dimethylbutyl)-3-azaspiro[5.5]undecan-9-yl)-1-methyl-3-(5-methylisoxazol-3-yl)-1H-pyrazole-4-carboxamide]
Ki [1]: 100 to 500 nM | Ki [2]: < 100 nM

SMILES: Cc1cc(-c2nn(C)c(Cl)c2C(=O)N2CCCCC(N(C)CCc3ccccc3)C2)no1 (centres unmarked) [Example 110, (5-Chloro-1-methyl-3-(5-methylisoxazol-3-yl)-1H-pyrazol-4-yl)(3-(methyl(phenethyl)amino)azepan-1-yl)methanone]
Ki [1]: 500 to 1000 nM | Ki [2]: 100 to 500 nM

SMILES: Cc1cc(-c2nn(C)c(Cl)c2C(=O)N2CCC3(CCN(CC(=O)N4CCCCC4)CC3)CC2)no1 [Example 112, 2-(9-(5-Chloro-1-methyl-3-(5-methylisoxazol-3-yl)-1H-pyrazole-4-carbonyl)-3,9-diazaspiro[5.5]undecan-3-yl)-1-(piperidin-1-yl)ethanone]
Ki [1]: > 1000 nM | Ki [2]: 100 to 500 nM

SMILES: Cc1cc(-c2nn(C)c(Cl)c2CN2CCC3(CCN(CCC(C)(C)C)CC3)C2=O)no1 [Example 114, 2-((5-Chloro-1-methyl-3-(5-methylisoxazol-3-yl)-1H-pyrazol-4-yl)methyl)-8-(3,3-dimethylbutyl)-2,8-diazaspiro[4.5]decan-1-one]
Ki [1]: 100 to 500 nM | Ki [2]: 100 to 500 nM

SMILES: Cc1cc(-c2nn(C)c(Cl)c2CN2CCC3(CCN(CCC(C)(C)C)CC3)CC2=O)no1 [Example 115, 3-((5-Chloro-1-methyl-3-(5-methylisoxazol-3-yl)-1H-pyrazol-4-yl)methyl)-9-(3,3-dimethylbutyl)-3,9-diazaspiro[5.5]undecan-2-one]
Ki [1]: 100 to 500 nM | Ki [2]: < 100 nM
